From ChEMBL document CHEMBL3217509, “Discovery of an HIV integrase inhibitor with an excellent resistance profile” (Medchemcomm, 2013)

Key:
[1] = Intrinsic clearance in human liver microsomes assessed per mg of protein by LC-MS/MS analysis in presence of UDPGA; format: ADME; details: read-out: CLH
[2] = Intrinsic clearance in human liver microsomes assessed per mg of protein by LC-MS/MS analysis; format: ADME; details: read-out: CLH
[3] = Intrinsic clearance in human hepatocytes assessed assessed per million of cells by LC-MS/MS analysis; format: ADME, cell-based, Hepatocyte; details: read-out: CLH
[4] = system: Human immunodeficiency virus 1; experiment: Antiviral activity against HIV1 NL4-3 infected in human MT2 cells after 3 days by human JC53BL cell-based beta-galactosidase reporter gene assay; format: functional, organism-based; details: Human immunodeficiency virus 1, NL4-3, JC53BL, 72 h

Compound | microsomal CLint [1] [µL/min/mg] | microsomal CLint [2] [µL/min/mg] | hepatocyte CLint [3] [µL/min/1e6 cells] | IC50 [4] [nM]
O=C1c2ncc3c(ccn3Cc3ccc(F)cc3)c2CCN1O | 24 | 19.2 | 29.6 | 
COc1cc(F)ccc1Cn1ccc2c3c(ncc21)C(=O)N(O)C(C)(C)C3 | 19.7 | 17 | 37.7 | 3.9
Cc1nc2c(ncc3c2ccn3Cc2ccc(F)cc2)c(=O)n1O | 80.2 | 21.3 | 14.1 | 451
COc1cc(F)ccc1Cn1ccc2c3c(ncc21)C(=O)N(O)C3(C)C | 4.8 | < 8 | 28.8 | > 7480
CC1(C)CN(O)C(=O)c2ncc3c(ccn3Cc3ccc(F)cc3)c21 | 170 |  | 64.7 | 1
CCOc1cc(F)ccc1Cn1ccc2c3c(ncc21)C(=O)N(O)CC3 | 5 | < 8 | 23.2 | 4.1
O=C1c2ncc3c(ccn3Cc3ccc(F)cc3OC(F)F)c2CCN1O | 5.8 | 15.4 | 17 | 5
